{
  "source": "patent US10052320B2",
  "about": "“Substituted quinoxalines as FGFR kinase inhibitors” (ASTEX THERAPEUTICS LIMITED, priority 2011, dated 2018)",
  "key": {"[1]": {"biological_target": "FGFR2 (h) (Homo sapiens, UniProt P21802)", "sequence (P21802 22-821)": "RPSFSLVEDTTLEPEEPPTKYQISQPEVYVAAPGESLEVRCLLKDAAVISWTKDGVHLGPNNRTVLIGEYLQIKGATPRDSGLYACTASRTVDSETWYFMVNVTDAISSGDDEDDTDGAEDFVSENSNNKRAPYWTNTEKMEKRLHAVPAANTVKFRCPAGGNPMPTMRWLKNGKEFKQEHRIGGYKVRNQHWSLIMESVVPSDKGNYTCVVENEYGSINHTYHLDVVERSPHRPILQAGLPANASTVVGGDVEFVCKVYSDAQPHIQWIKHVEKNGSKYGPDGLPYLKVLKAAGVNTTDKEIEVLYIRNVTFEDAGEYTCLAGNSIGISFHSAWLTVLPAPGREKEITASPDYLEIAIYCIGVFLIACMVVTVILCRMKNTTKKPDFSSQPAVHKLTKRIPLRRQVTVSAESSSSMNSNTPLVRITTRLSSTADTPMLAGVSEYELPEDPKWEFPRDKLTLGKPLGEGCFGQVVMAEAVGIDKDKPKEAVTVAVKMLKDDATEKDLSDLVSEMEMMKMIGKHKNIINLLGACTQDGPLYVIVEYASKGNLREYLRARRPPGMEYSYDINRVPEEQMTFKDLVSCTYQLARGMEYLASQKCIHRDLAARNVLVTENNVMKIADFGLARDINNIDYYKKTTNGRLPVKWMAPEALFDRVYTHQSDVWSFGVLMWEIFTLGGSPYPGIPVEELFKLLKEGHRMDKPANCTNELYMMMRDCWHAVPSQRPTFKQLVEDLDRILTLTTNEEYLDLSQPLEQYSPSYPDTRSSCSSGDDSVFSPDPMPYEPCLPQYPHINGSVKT", "experiment": "FGFR2 (enzymatic assay), TR-FRET", "assay_type": "biochemical", "settings": "read-out: FGFR 2 pIC50 (converted)", "protocol": "In a final reaction volume of 30 μL, FGFR2 (h) (150 ng/ml) was incubated with 50 mM HEPES pH 7.5, 6 mM MnCl2, 1 mM DTT, 0.1 mM Na3VO4, 0.01% Triton-X-100, 500 nM Btn-Flt3 and 0.4 μM ATP in the presence of compound (1% DMSO final). […] Time-Resolved Fluorescence Resonance Energy Transfer (TR-FRET) signal (ex340 nm. Em 620 nm, em 655 nm) was measured afterwards and results are expressed in (Relative Fluorescence Units)."}, "[2]": {"biological_target": "Ba/F3-FGFR3-transfected cells (Homo sapiens, UniProt P22607)", "sequence (P22607 whole entry, change not shown)": "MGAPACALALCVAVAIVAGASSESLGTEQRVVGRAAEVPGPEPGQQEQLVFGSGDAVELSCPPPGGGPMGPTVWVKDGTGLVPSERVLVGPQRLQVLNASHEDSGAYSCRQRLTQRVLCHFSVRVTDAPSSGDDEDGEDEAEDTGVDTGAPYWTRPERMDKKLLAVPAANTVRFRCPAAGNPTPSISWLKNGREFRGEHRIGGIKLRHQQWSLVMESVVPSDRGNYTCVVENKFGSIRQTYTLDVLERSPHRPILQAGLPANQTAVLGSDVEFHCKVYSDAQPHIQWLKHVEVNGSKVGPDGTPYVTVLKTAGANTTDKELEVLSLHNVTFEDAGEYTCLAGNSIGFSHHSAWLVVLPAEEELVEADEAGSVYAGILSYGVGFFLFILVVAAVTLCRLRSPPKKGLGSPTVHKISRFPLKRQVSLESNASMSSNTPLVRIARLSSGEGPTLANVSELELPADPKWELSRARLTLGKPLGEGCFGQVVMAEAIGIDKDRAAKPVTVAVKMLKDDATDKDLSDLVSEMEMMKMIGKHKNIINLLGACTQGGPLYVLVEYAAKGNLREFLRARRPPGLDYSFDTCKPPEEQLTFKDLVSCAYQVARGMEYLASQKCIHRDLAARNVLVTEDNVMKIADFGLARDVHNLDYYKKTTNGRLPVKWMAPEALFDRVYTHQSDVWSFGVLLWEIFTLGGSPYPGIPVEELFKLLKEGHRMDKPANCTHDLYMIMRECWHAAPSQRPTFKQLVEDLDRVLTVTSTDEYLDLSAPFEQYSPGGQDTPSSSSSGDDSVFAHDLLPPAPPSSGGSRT", "experiment": "Ba/F3-FGFR3 (minus IL3) cellular proliferation assay, Alamar Blue", "assay_type": "cell-based", "settings": "minus IL3, 384 well", "method_in_brief": "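Ba/F3 cells transfected with FGFR3 were exposed to compound in RPMI-1640 with 10% FBS for 24 h at 37 °C, 5% CO2. Alamar Blue (resazurin) was then added for 4 h, and fluorescence was read at ex 540/em 590 nm.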"}, "[3]": {"biological_target": "T1, Ba/F3-Flt3-transfected cells (Homo sapiens, UniProt P36888, cells depend on it, form not given)", "T1 sequence (P36888 1-993)": "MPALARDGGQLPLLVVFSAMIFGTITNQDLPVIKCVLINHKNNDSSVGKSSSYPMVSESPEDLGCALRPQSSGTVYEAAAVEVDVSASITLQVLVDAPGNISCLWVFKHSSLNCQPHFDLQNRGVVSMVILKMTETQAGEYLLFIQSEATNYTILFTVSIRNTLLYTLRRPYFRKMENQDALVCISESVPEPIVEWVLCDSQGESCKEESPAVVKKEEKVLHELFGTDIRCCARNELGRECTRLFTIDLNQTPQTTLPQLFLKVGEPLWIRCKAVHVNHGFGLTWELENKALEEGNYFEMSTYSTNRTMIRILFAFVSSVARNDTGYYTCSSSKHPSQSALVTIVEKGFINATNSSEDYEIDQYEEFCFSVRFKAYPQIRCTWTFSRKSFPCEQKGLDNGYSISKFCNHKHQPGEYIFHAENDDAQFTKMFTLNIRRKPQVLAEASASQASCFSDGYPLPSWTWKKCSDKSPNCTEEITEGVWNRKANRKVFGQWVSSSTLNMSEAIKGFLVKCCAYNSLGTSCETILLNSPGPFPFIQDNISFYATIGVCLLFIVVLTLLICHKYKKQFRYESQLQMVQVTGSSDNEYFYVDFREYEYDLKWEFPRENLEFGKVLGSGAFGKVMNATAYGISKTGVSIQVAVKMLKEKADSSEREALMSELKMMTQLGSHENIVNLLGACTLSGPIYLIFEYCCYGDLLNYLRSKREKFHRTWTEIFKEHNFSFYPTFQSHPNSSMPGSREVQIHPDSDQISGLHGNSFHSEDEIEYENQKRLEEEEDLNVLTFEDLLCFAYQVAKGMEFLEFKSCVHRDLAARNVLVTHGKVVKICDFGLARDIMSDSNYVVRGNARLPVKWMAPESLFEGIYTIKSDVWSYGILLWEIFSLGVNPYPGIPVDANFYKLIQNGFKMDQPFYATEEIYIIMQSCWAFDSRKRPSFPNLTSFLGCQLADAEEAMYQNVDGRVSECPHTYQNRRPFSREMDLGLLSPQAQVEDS", "experiment": "Ba/F3-Flt3 (minus IL3) cellular proliferation assay, Alamar Blue", "assay_type": "cell-based", "settings": "minus IL3"}, "[4]": {"system": "Ba/F3-Flt3-transfected cells in the presence of 10 ng/ml murine IL3", "experiment": "Ba/F3-Flt3 (plus IL3) cellular proliferation counterscreen, Alamar Blue", "assay_type": "cell-based", "settings": "Mus musculus; plus 10 ng/ml murine IL3; read-out: BAF3-FLT3 (PLUS IL3) 384 well pIC50 (converted)"}},
  "data": [
    {"smiles": "CNc1ccc(-c2cnc3ccc(N(CCCO)c4cc(OC)cc(OC)c4)cc3n2)cn1", "note": "[Compound 116]", "values": [
      {"measurement": "IC50", "setting": "[1]", "result": 10.7, "unit": "nM"},
      {"measurement": "BAF3-FGFR 3 (MIN IL3) 384 well pIC50", "setting": "[2]", "result": 6.59},
      {"measurement": "BAF3-FLT3 (MIN IL3) 384 well pIC50", "setting": "[3]", "result": "<5"},
      {"measurement": "IC50", "setting": "[4]", "result": "> 10", "unit": "µM"},
      {"measurement": "melting point", "result": 188, "unit": "°C"}
    ]},
    {"smiles": "COc1cc(OC)cc(N(CCO)c2ccc3ncc(-c4ccccc4)nc3c2)c1", "note": "[Compound 120]", "values": [
      {"measurement": "IC50", "setting": "[1]", "result": 15.1, "unit": "nM"},
      {"measurement": "BAF3-FGFR 3 (MIN IL3) 384 well pIC50", "setting": "[2]", "result": "~6.09"},
      {"measurement": "BAF3-FLT3 (MIN IL3) 384 well pIC50", "setting": "[3]", "result": "<5"},
      {"measurement": "IC50", "setting": "[4]", "result": "> 10", "unit": "µM"},
      {"measurement": "melting point", "result": 124, "unit": "°C"}
    ]},
    {"smiles": "COc1cc(OC)cc(N(CCO)c2ccc3ncc(-c4ccnc(C(=O)NCCCN)c4)nc3c2)c1", "note": "[Compound 123]", "values": [
      {"measurement": "IC50", "setting": "[1]", "result": 25.7, "unit": "nM"},
      {"measurement": "BAF3-FGFR 3 (MIN IL3) 384 well pIC50", "setting": "[2]", "result": 5.57},
      {"measurement": "BAF3-FLT3 (MIN IL3) 384 well pIC50", "setting": "[3]", "result": "<5"},
      {"measurement": "IC50", "setting": "[4]", "result": "> 10", "unit": "µM"},
      {"measurement": "melting point", "result": 103, "unit": "°C"}
    ]},
    {"smiles": "COc1cc(OC)cc(N(CCCO)c2ccc3ncc(-c4ccnc(NC(=O)OC(C)(C)C)c4)nc3c2)c1", "note": "[Compound 128]", "values": [
      {"measurement": "IC50", "setting": "[1]", "result": 135, "unit": "nM"},
      {"measurement": "BAF3-FGFR 3 (MIN IL3) 384 well pIC50", "setting": "[2]", "result": "<5"},
      {"measurement": "BAF3-FLT3 (MIN IL3) 384 well pIC50", "setting": "[3]", "result": "<5"},
      {"measurement": "IC50", "setting": "[4]", "result": "> 10", "unit": "µM"},
      {"measurement": "melting point", "result": 213, "unit": "°C"}
    ]}
  ]
}
